The source of these data is patent US6420363B1, “Mono- or polyenic carboxylic acid derivatives” (Eisai Co., Ltd., priority 1994, dated 2002).

One data set concerns HL60 cells. Description: Antagonism against all-trans retinoic acid in inducing the differentiation of HL60 cells (CD11b-positive cells, flow cytometry). It is filed as cell-based. Conditions: Homo sapiens, HL-60, 120 h; CD11b-positive cells induced by 10 nM all-trans retinoic acid, 5 days. From the text:
Antagonism Against All-trans Retinoic Acid in Inducing the Differentiation of HL60 Cells
It is known that human promyelocytic leukemia cells HL60 differentiate into granulocyte-like cells in the presence of all-trans retinoic acid (Breitman, T., Selonick, S., and Collins, S., Proc. Natl. Acad. Sci. U.S.A. 77, 2936(1980)). In general, cells allow specific differentiation antigens to be expressed on the cell surfaces when they have achieved differentiation. When HL60 cells differentiate into granulocyte-like cells, CD11b which is a granulocyte/monocyte discriminating antigen is expressed on the cell surfaces (Fontana, J A., Reppuci, A., Durham, J P., and Mirand, D., Cancer Res. 46, 2469-2473 (1986)). The antagonism of a test compound against the differentiation into granulocyte-like cells induced by all-trans retinoic acid was studied by utilizing this phenomenon.
HL60 cells were cultured and maintained in a medium prepared by adding 10% of inactivated fetal bovine serum, 1 mM of sodium pyridinecarboxylate, 50 μM of β-mercaptoethanol, 100 IU/ml of penicillin and 100 μg/ml of streptomycin to RPMI1640 (culture medium formulated by Rosewell Park Memorial Institute).
An HL60 cell suspension (1×10^5 cells/ml) was put in a 48-well plate in an amount of one ml per unit well, followed by the addition of all-trans retinoic acid in a concentration of […] and a retinoid antagonist in various concentrations. The resulting mixtures were cultured in a 5% CO2-air incubator for 5 days. After the completion of the culture, the cells in each well was recovered into a test tube, followed by the addition of an FITC-labeled monoclonal antibody against CD11b (which is a specific antigen against glanulocytes and monocytes). The resulting cell suspension was fixed with 0.2% paraformaldehyde. The fixed cell suspension thus obtained was examined for the content of CD11b-positive cells in the HL60 cell population of each well by flow cytometry (Miller, L. J., Schwarting, R., and Springer, T A., J. Immunol. 137, 2891-2900 (1986)). The compounds which will be described below lowered the content of CD11b-positive cells induced by 10 nM all-trans retinoic acid dependently on the concentration.
A general note: In flow cytometry, cells or beads pass a laser one at a time.

Data set [1] has as its target T1, all-trans retinoic acid receptors (RAR) (Homo sapiens, UniProt P10276).
T1 construct: determined by the use of the nuclear extract fraction of HL60; endogenous in cells; host or cells: HL60 human promyelocytic leukemia cells, nuclear extract fraction
T1 sequence (P10276 1-462): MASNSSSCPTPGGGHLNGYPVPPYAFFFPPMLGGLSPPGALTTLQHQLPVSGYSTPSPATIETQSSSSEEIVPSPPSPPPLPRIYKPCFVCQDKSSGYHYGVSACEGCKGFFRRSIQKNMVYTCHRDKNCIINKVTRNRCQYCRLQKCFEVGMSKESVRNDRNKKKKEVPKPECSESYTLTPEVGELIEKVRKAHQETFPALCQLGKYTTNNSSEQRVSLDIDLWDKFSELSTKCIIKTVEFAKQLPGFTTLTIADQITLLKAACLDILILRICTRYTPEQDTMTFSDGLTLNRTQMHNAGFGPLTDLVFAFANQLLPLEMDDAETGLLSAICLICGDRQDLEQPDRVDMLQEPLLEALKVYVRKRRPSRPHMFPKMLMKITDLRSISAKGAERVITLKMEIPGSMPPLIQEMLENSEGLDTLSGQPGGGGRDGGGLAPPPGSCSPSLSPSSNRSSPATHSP
Put plainly: Receptor binding assay using nuclear extract fraction of human promyelocytic leukemia cell HL60. Conditions: inhibition of specific binding of 3H-all-trans retinoic acid, 4° C., 16 hours. As for the experimental part: Receptor Binding Assay Using Human Promyelocytic Leukemia Cell HL60
It is known that all-trans retinoic acid receptors (retinoic acid receptor: RAR) are is present in the nuclei of HL60 cells (Clara Nervi et al., Proc. Natl. Acad. Sci. U.S.A. 86, 5854(1989)). Therefore, the specific binding of all-trans retinoic acid for RAR was determined by the use of the nuclear extract fraction of HL60, and each test compound was examined for the ability to bind RAR by determining the inhibition against the specific binding.
The nuclear extract fraction was prepared as follows.
HL60 cells (5×10^8) were suspended in 15 ml of solution A (sodium phosphate (pH7.4): 5 mM, monothioglycerol: 10 mM, glycerol: 10% (v/v), phenylmethylsulfonyl fluoride (PMSF): 1 mM, aprotinin: 10 μg/ml, and leupeptin: 25 μg/ml). The obtained suspension was homogenized by the use of a homogenizer and centrifuged to remove the resulting supernatant. The sediment thus formed was suspended in 15 ml of solution B (Tris-HCl(pH8.5): 10 mM, monothioglycerol: 10 mM, glycerol: 10% (v/v), PMSF: 1 mM, aprotinin: 10 μg/ml, leupeptin: 25 μg/ml, and KCl: 0.8 M). The obtained suspension was allowed to stand at 4° C. for one hour, and subjected to ultracentrifugation (100,000×g, 4° C., 1 hr). The obtained supernatant was stored as the nuclear extract fraction in a frozen state at −80° C. until the use (METHODS IN ENZYMOLOGY, 189, 248).
The receptor binding assay was conducted as follows.
180 μl of the above fraction and 10 μl of a dilution of all-trans retinoic acid or a test compound were added to each well of a 96-well plate made of polypropylene, followed by the addition of 10 μl of 10 nM^3H-all-trans retinoic acid. The resulting plate was allowed to stand at 4° C. for 16 hours. A solution containing 3% of charcoal and 0.3% of dextran was added to the resulting reaction mixture. The mixture thus obtained was centrifuged to remove free ^3H-all-trans retinoic acid. The radioactivity of the resulting supernatant was determined by the use of a scintillation counter. The specific binding of ^3H-all-trans retinoic acid for RAR was determined by assuming the radioactivity found when 200 times as much all-trans retinoic acid was added to be the non-specific binding and subtracting it from the radioactivity determined above. The compounds which will be described below inhibited the binding of ^3H-all-trans retinoic acid dependently on the concentration.

As to `CC(/C=C/C(F)=C(/C)c1ccc2c(c1)CCCN2C(C)C)=C\C(=O)O` [Example 5, (E,E,E)-7-[1-(1-methylethyl)-1,2,3,4-tetrahydroquinolin-6-yl]-6-fluoro-3-methyl-octa-2,4,6-trienoic acid], the values for the IC50 (in the data set with HL60 cells; in data set [1]) were 39 nM and 5.4 nM, respectively. As for `COC(=O)/C=C(C)/C=C/C(F)=C(/C)c1ccc2c(c1)CC(C)CN2C(C)C` (stereo not shown) [Example 14, Methyl (E,E,E)-7-[1-(1-methylethyl)-3-methyl-1,2,3,4-tetrahydroquinolin-6-yl]-6-fluoro-3-methyl-octa-2,4,6-trienoate], the IC50 in the data set on HL60 cells was determined as 130 nM; in data set [1] it was 13 nM. As for `CCOC(=O)/C(F)=C(/C)c1ccc2c(c1)CC(C)CN2C(C)C` (stereo not shown) [Example 13, Ethyl (E)-3-[1-(1-methylethyl)-3-methyl-1,2,3,4-tetrahydroquinolin-6-yl]-2-fluoro-2-butenoate], the IC50 in the data set on HL60 cells turned out to be 29 nM; in data set [1], 12.5 nM. `CC1(C)CCC(C)(C)c2c1sc1c2-c2c(c(-c3ccc(C(=O)O)cc3)cn2Cc2cccnc2)CC1` [Example 210]: the melting point lay in the range of 289 to 290 °C. On to `CC(/C=C/C(F)=C(/C)c1ccc2c(c1)C(C)CCN2C(C)C)=C\C(=O)O` (stereo not shown) [Example 9, (E,E,E)-7-[1-(1-Methylethyl)-4-methyl-1,2,3,4-tetrahydroquinolin-6-yl]-6-fluoro-3-methyl-octa-2,4,6-trienoic acid], for which the IC50 was 880 nM in the data set with HL60 cells and more than 50 nM in data set [1]. On the same counts, the results for `CC(/C=C/C(C)=C/c1ccc2c(c1)CCCN2C(C)C)=C\C(=O)O` [Example 4, (E,E,E)-7-[1-(1-methylethyl)-1,2,3,4-tetrahydroquinolin-6-yl]-3,6-dimethyl-hepta-2,4,6-trienoic acid] are 74 nM and 20 nM. The matching figures for `COC(=O)/C=C(C)/C=C/C(F)=C(/C)c1ccc2c(c1)C(C)CCN2C(C)C` (stereo not shown) [Example 8, Methyl (E,E,E)-7-[1-(1-methylethyl)-4-methyl-1,2,3,4-tetrahydroquinolin-6-yl]-6-fluoro-3-methyl-octa-2,4,6-trienoate]: 470 nM and 17 nM.

The IC50 is the concentration that gives 50% inhibition. A high value points to weaker potency. For orientation: melting point means the temperature, or range, at which the solid turns liquid.
